Experimental data published in patent US12441733B2, “Substituted 2,4-dioxotetrahydropyrimidines as intermediates in the synthesis of bruton's tyrosine kinase inhibitors” (Novartis AG, priority 2018, dated 2025).

Target: T1, BTK(C481S)-GFP (Homo sapiens, UniProt Q06187+Q96SW2, C481S)
T1 construct: CHYSEL (cis-acting hydrolase element, 2A) remnant after GFP; mCherry is split off as a separate protein (C); expressed in transfected cells; host or cells: TMD8 cells, lentiviral transduction with pLenti6-BTK(C481S)-GFP-CHYSEL-mCherry
Experiment: BTK(C481S)-GFP protein abundance flow cytometry assay in TMD8 cells
Assay type: cell-based
Conditions: TMD8 cells expressing BTK(C481S)-GFP; for DC50: GFP signal by flow cytometry; for BTK (C481S) Amax: % protein remaining at maximum degradation
Experimental: Compounds of the invention were tested in the following cellular assays. The terms in Table 2 are defined as follows: DC50 refers to the concentration at which 50% maximal degradation was observed; deg Amax is the extent of degradation and the value refers to the % protein remaining at the concentration at which maximum degradation is seen; ProI GI50 refers to the proliferation data and defines the concentration at which 50% growth inhibition was observed compared to the vehicle treated control at the end of the incubation time. TMD8 cells are BTK dependent and OCI-LY3 cells are BTK independent.
Btk(C481S)-GFP Protein Abundance Flow Cytometry Assay in TMD8 Cells:
Degradation of BTK(C481S) was measured in TMD8 cells expressing BTK(C481S)-GFP and mCherry from a stably integrated second generation bicistronic BTK(C481S)-GFP-CHYSEL-mCherry construct. Reduction of the […] measured by flow cytometry served as readout for BTK(C481S) degradation after degrader treatment.
Cloning of the pLenti6-BTK(C481)-GFP-CHYSEL-mCherry Sensor Vectors
The BTK(C481 S) protein abundance sensor is based on a second generation bicistronic construct, where the 2 reading frames BTK(C481S) and mCherry control are separated by a cis-acting hydrolase element (see: Lo et al., 2015 Cell Reports 13, 2634), replacing the Ires from the first generation vector described before.
The bicistronic BTK(C481S)-GFP-CHYSEL-mCherry construct is based on a pLenti6-DEST vector backbone where a GFP-CHYSEL-mCherry cassette was synthesized and inserted downstream of the DEST cassette by Gibson assembly resulting in the new gateway compatible vector pLenti6-DEST-GFP-CHYSEL-mCherry to allow Gateway cloning with pENTR221-BTK(C48S)(STOP-Leu) to obtain the final sensor construct pLenti6-BTK(C481S)-GFP-CHYSEL-mCherry. The pENTR221-BTK(C481S)(STOP-Leu) was generated by mutating wild-type BTK to BTK(C481S) with a mutagenesis reaction on pENTR221-BTK (STOP-Leu) with the following primers (BTK C481S Quikchange fw, gagtacatggccaatggctCcctcctgaactacctgagg (SEQ ID NO: 7); BTK C481S Quikchange REVC, cctcaggtagttcaggaggGagccattggccatgtactc (SEQ ID NO: 8)) using the QuikChange Lightning mutagenesis kit (Agilent Technologies #210518) performed according to the manufacturer's manual, resulting in pENTR221-BTK(C481S)(STOP-Leu).
Sequence of the synthesized construct (Xho1 sites are shown in bold, mCherry-ORF is shown in small letters):
Engineering of Stably Expressing TMD8 BTK(C481 S-GFP-CHYSEL-mCherry Sensor Cells
TMD8 BTK(C481S)-GFP-CHYSEL-mCherry sensor cells were generated by lentiviral vector transduction using the pLenti6-BTK(C4818)-GFP-CHYSEL-mCherry sensor construct described before. Lentiviral particles were produced in HEK293FT cells (Invitrogen R70007) by co-transfection of 500 ng pLenti6-BTK-GFP-Ires-RFP or pLenti6-IKZF3-GFP-Ires-RFP, 500 ng delta8.71 and 200 ng pVSVG diluted in 100 μl OptiMEM serum free medium (Invitrogen #11058-021) that was mixed after 5 min preincubation with 3 μl of Lipofectamine2000 (Invitrogen #11668-019) in 97 μl OptiMEM serum free medium. The mix was incubated for another 20 min at RT and then added to 1 ml of a freshly prepared suspension of HEK293FT cells in a well of a 6-well plate (concentration 1.2×10^6 cells/ml). 1 day after transfection, the medium was replaced with 1.5 ml of complete growth medium (DMEM high Glucose+10% FCS+1% L-Glutamine+1% NEAA+1% NaPyr.). 48 h post transfection supernatant containing viral transducing particles was collected and frozen at −80° C.
Two days before transduction with viral particles 1×10^5 HEK293A cells (Invitrogen R7057) were seeded in 2 ml growth medium in a well of a 6-well plate. Infection was performed with 90 μl of collected supernatant containing viral transducing particles in 1 ml medium including 8 μg/ml polybrene. 24 h post infection, stably transfected cells were selected with blasticidin at a concentration of 8 μg/ml.

T1 sequence (Q06187 whole entry C481S): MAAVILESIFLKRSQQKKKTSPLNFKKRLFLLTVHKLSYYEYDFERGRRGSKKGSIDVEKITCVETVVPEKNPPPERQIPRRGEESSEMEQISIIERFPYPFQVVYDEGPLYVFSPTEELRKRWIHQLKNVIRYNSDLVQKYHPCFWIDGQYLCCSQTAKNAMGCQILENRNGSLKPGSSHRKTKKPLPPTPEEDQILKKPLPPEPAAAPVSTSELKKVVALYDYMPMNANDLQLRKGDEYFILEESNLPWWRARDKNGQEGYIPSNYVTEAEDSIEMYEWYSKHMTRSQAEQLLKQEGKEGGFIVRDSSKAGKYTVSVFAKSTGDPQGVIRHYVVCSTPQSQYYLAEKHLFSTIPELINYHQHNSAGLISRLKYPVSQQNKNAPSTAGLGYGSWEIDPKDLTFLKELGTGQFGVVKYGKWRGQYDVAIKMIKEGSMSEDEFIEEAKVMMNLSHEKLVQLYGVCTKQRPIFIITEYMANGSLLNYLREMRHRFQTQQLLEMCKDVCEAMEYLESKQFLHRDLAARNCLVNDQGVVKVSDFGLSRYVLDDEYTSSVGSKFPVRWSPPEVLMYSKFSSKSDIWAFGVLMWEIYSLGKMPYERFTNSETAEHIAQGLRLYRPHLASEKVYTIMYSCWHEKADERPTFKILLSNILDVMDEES
T1 sequence (Q96SW2 whole entry): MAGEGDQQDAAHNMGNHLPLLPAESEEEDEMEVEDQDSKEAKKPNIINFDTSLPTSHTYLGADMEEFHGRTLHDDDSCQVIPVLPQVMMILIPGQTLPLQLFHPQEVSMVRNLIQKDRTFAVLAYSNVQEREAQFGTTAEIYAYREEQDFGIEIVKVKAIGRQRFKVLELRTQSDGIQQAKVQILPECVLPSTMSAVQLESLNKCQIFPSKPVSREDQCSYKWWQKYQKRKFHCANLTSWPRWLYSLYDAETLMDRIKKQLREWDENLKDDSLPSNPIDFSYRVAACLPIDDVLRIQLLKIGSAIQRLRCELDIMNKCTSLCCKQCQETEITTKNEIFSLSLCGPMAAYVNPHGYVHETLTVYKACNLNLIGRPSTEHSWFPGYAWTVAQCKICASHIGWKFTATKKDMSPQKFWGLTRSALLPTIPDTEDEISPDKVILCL
T1 sequence (Q16531 whole entry partner): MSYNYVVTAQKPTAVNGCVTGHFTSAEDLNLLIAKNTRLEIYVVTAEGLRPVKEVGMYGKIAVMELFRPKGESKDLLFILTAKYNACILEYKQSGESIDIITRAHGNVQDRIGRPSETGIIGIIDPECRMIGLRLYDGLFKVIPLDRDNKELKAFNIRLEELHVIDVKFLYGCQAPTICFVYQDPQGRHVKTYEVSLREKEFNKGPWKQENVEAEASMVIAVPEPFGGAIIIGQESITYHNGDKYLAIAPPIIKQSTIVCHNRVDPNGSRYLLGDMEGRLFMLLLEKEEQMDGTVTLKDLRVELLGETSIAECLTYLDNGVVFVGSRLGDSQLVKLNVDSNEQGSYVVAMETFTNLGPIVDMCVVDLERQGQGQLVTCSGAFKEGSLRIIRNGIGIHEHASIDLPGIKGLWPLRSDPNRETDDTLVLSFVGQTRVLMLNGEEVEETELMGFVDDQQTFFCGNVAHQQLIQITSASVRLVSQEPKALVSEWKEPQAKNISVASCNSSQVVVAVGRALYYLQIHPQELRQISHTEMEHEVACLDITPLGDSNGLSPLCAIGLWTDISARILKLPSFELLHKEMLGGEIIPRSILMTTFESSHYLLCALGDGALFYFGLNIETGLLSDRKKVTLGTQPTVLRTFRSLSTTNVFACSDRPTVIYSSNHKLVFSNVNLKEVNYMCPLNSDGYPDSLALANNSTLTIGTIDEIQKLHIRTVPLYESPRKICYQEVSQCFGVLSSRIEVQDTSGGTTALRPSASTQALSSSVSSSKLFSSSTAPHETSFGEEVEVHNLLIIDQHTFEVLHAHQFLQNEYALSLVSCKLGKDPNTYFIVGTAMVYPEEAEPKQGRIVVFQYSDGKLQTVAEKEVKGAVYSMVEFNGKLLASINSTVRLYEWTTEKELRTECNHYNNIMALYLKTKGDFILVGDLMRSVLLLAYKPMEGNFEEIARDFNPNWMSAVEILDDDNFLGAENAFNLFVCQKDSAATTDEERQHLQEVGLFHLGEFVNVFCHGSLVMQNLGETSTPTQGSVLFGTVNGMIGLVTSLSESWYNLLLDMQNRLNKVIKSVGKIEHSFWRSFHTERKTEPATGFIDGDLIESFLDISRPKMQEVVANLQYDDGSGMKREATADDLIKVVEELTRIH

Compound | DC50 | BTK (C481S) Amax
COc1ccc(C(=O)N2CCN(CCCCNCc3ccc(-c4cc5c(-c6cc(F)cc(NC(=O)c7ccc(C(C)(C)O)cc7F)c6C)ncnc5[nH]4)cc3)CC2)cc1N1CCC(=O)NC1=O [Compound 40, N-(3-(6-(4-(((4-(4-(3-(2,4-dioxotetrahydropyrimidin-1(2H)-yl)-4-methoxybenzoyl)piperazin-1-yl)butyl)amino)methyl)phenyl)-7H-pyrrolo[2,3-d]pyrimidin-4-yl)-5-fluoro-2-methylphenyl)-2-fluoro-4-(2-hydroxypropan-2-yl)benzamide] | 3.03 nM | 2.9%
COc1ccc(C(=O)N2CCN(C(=O)N3CCN(Cc4ccc(-c5cc6c(-c7cc(F)cc(NC(=O)c8ccc(C(C)(C)O)cc8F)c7C)ncnc6[nH]5)cc4)CC3)CC2)cc1N1CCC(=O)NC1=O [Compound 22, N-(3-(6-(4-((4-(4-(3-(2,4-Dioxotetrahydropyrimidin-1(2H)-yl)-4-methoxybenzoyl)piperazine-1-carbonyl)piperazin-1-yl)methyl)phenyl)-7H-pyrrolo[2,3-d]pyrimidin-4-yl)-5-fluoro-2-methylphenyl)-2-fluoro-4-(2-hydroxypropan-2-yl)benzamide] | 2.47 nM | 4.5%
Cc1ccc(C(=O)N(C)CCCCCNCc2ccc(-c3cc4c(-c5cc(F)cc(NC(=O)c6ccc(C(C)(C)O)cc6F)c5C)ncnc4[nH]3)cc2)cc1N1CCC(=O)NC1=O [Compound 30, 3-(2,4-Dioxotetrahydropyrimidin-1(2H)-yl)-N-(5-((4-(4-(5-fluoro-3-(2-fluoro-4-(2-hydroxypropan-2-yl)benzamido)-2-methylphenyl)-7H-pyrrolo[2,3-d]pyrimidin-6-yl)benzyl)amino)pentyl)-N,4-dimethylbenzamide] | 8.18 nM | 3.1%
CCOc1ccc(C(=O)N2CCC3(CCN(Cc4ccc(-c5cc6c(-c7cc(F)cc(NC(=O)c8ccc(C(C)(C)O)cc8F)c7C)ncnc6[nH]5)cc4)CC3)CC2)cc1N1CCC(=O)NC1=O [Compound 4, N-(3-(6-(4-((9-(3-(2,4-Dioxotetrahydropyrimidin-1(2H)-yl)-4-ethoxybenzoyl)-3,9-diazaspiro[5.5]undecan-3-yl)methyl)phenyl)-7H-pyrrolo[2,3-d]pyrimidin-4-yl)-5-fluoro-2-methylphenyl)-2-fluoro-4-(2-hydroxypropan-2-yl)benzamide] | 2.08 nM | 2.2%

Other lines, results leading:

DC50 | BTK (C481S) Amax | Compound
0.72 nM | 2.1% | Cc1c(NC(=O)c2ccc(C(C)(C)O)cc2F)cc(F)cc1-c1ncnc2[nH]c(-c3ccc(COC4CCN(CCC5CCN(C(=O)c6ccc(F)c(N7CCC(=O)NC7=O)c6)CC5)CC4)cc3)cc12 [Compound 6, N-(3-(6-(4-(((1-(2(1-(3-(2,4-dioxotetrahydropyrimidin-1(2H)-yl)-4-fluorobenzoyl)piperidin-4-yl)ethyl)piperidin-4-yl)oxyl)methyl)phenyl)-7H-pyrrolo[2,3-d]pyrimidin-4-yl)-5-fluoro-2-methylphenyl)-2-fluoro-4-(2-hydroxypropan-2-yl)benzamide]
0.57 nM | 2.5% | Cc1ccc(C(=O)N2CCC3(CCN(CCc4ccc(-c5cc6c(-c7cc(F)cc(NC(=O)c8ccc(C(C)(C)O)cc8F)c7C)ncnc6[nH]5)cc4)CC3)CC2)cc1N1CCC(=O)NC1=O [Compound 5, N-(3-(6-(4-(2-(9-(3-(2,4-Dioxotetrahydropyrimidin-1(2H)-yl)-4-methylbenzoyl)-3,9-diazaspiro[5.5]undecan-3-yl)ethyl)phenyl)-7H-pyrrolo[2,3-d]pyrimidin-4-yl)-5-fluoro-2-methylphenyl)-2-fluoro-4-(2-hydroxypropan-2-yl)benzamide]
0.72 nM | 2.4% | Cc1c(NC(=O)c2ccc(C(C)(C)O)cc2F)cc(F)cc1-c1ncnc2[nH]c(-c3ccc(CCN4CCC5(CC4)CCN(C(=O)c4ccc(F)c(N6CCC(=O)NC6=O)c4)CC5)cc3)cc12 [Compound 47, N-(3-(6-(4-(2-(9-(3-(2,4-dioxotetrahydropyrimidin-1(2H)-yl)-4-fluorobenzoyl)-3,9-diazaspiro[5.5]undecan-3-yl)ethyl)phenyl)-7H-pyrrolo[2,3-d]pyrimidin-4-yl)-5-fluoro-2-methylphenyl)-2-fluoro-4-(2-hydroxypropan-2-yl)benzamide]
1.21 nM | 3.0% | COc1ccc(C(=O)N2CCC3(CCN(CCc4ccc(-c5cc6c(-c7cc(F)cc(NC(=O)c8ccc(C(C)(C)O)cc8F)c7C)ncnc6[nH]5)cc4)CC3)CC2)cc1N1CCC(=O)NC1=O [Compound 31, N-(3-(6-(4-(2-(9-(3-(2,4-Dioxotetrahydropyrimidin-1(2H)-yl)-4-methoxybenzoyl)-3,9-diazaspiro[5.5]undecan-3-yl)ethyl)phenyl)-7H-pyrrolo[2,3-d]pyrimidin-4-yl)-5-fluoro-2-methylphenyl)-2-fluoro-4-(2-hydroxypropan-2-yl)benzamide]
2.08 nM | 2.7% | COc1ccc(C(=O)N2CCC(OC3CCN(Cc4ccc(-c5cc6c(-c7cc(F)cc(NC(=O)c8ccc(C(C)(C)O)cc8F)c7C)ncnc6[nH]5)cc4)CC3)CC2)cc1N1CCC(=O)NC1=O [Compound 8, N-(3-(6-(4-((4-((1-(3-(2,4-dioxotetrahydropyrimidin-1(2H)-yl)-4-methoxybenzoyl)piperidin-4-yl)oxyl)piperidin-1-yl)methyl)phenyl)-7H-pyrrolo[2,3-d]pyrimidin-4-yl)-5-fluoro-2-methylphenyl)-2-fluoro-4-(2-hydroxypropan-2-yl)benzamide]
1.58 nM | 2.9% | Cc1c(NC(=O)c2ccc(C(C)(C)O)cc2F)cc(F)cc1-c1ncnc2[nH]c(-c3ccc(CCN4CCC5(CC4)CCN(C(=O)c4cccc(N6CCC(=O)NC6=O)c4)CC5)cc3)cc12 [Compound 12, N-(3-(6-(4-(2-(9-(3-(2,4-Dioxotetrahydropyrimidin-1(2H)-yl)benzoyl)-3,9-diazaspiro[5,5]undecan-3-yl)ethyl)phenyl)-7H-pyrrolo[2,3-d]pyrimidin-4-yl)-5-fluoro-2-methylphenyl)-2-fluoro-4-(2-hydroxypropan-2-yl)benzamide]
0.81 nM | 2.8% | Cc1ccc(C(=O)N2CCC3(CCN(Cc4ccc(-c5cc6c(-c7cc(F)cc(NC(=O)c8ccc(C(C)(C)O)cc8F)c7C)ncnc6[nH]5)cc4)CC3)CC2)cc1N1CCC(=O)NC1=O [Compound 27, N-(3-(6-(4-((9-(3-(2,4-Dioxotetrahydropyrimidin-1(2H)-yl)-4-methylbenzoyl)-3,9-diazaspiro[5.5]undecan-3-yl)methyl)phenyl)-7H-pyrrolo[2,3-d]pyrimidin-4-yl)-5-fluoro-2-methylphenyl)-2-fluoro-4-(2-hydroxypropan-2-yl)benzamide]
